Data on 18 compounds can be found in patent US10941137B2, “Difluoromethyl-phenyl triazoles” (Boehringer Ingelheim International GmbH, priority 2018, dated 2021).

For the series, the system named is human MDR1 P-gp. The series is described as follows: Efflux in MDCK cells transfected with the human MDR1 gene (MDCK-PGP permeability). As to conditions: dog, pH 7.4, 37° C.; for efflux ratio: PEBA/PEAB; for Papp A→B: apical-to-basal apparent permeability (PEAB). In kind it is in vitro ADME, canine. As to the method:
Assessment of Efflux in Madin-Darby Canine Kidney (MDCK) Cells Transfected with the 30 Human MDR1 Gene to Assess Brain Penetration (Drug Metabolism and Disposition February 2008, 36 (2) 268-275; DOI: https://doi.org/10.1124/dmd.107.017434) Apparent permeability coefficients (PE) of the compounds across the MDCK-MDR1 cell monolayers are measured (pH 7.4, 37° C.) in apical-to-basal (AB) and basal-to-apical (BA) transport direction. AB permeability (PEAB) represents drug absorption from the blood into the 35 brain and BA permeability (PEBA) drug efflux from the brain back into the blood via both passive permeability as well as active transport mechanisms mediated by efflux and uptake transporters that are expressed on the MDCK-MDR1 cells, predominantly by the overexpressed human MDR1 P-gp. The compounds are assigned to permeability/absorption classes by comparison of the AB permeabilities with the AB permeabilities of reference compounds with known in vitro permeability and oral absorption in the human. Identical or similar permeabilities in both transport directions indicate passive permeation, vectorial permeability points to additional active transport mechanisms. Higher PEBA than PEAB indicates the involvement of active efflux mediated by MDR1 P-gp. Active transport is concentration-dependently saturable.
MDCK-MDR1 cells (1-2×10e5 cells/1 cm2 area) are seeded on filter inserts (Costar transwell polycarbonate or PET filters, 0.4 μm pore size) and cultured (DMEM) for 7 days. Subsequently, the MDR1 expression is boosted by culturing the cells with 5 mM sodium butyrate in full medium for 2 days. Compounds are dissolved in appropriate solvent (like DMSO, 1-20 mM stock solutions). Stock solutions are diluted with HTP-4 buffer (128.13 mM NaCl, 5.36 mM KCl, 1 mM MgSO4, 1.8 mM CaCl2, 4.17 mM NaHCO3, 1.19 mM Na2HPO4×7H2O, 0.41 mM NaH2PO4xH2O, 15 mM HEPES, 20 mM glucose, 0.25% BSA, pH 7.4) to prepare the transport solutions (0.1-300 μM compound, final DMSO <=0.5%). The transport solution (TL) is applied to the apical or basolateral donor side for measuring A-B or B-A permeability (3 filter replicates), respectively. The receiver side contains the same buffer as the donor side. Samples are collected at the start and end of experiment from the donor and at various time intervals for up to 2 hours also from the receiver side for concentration measurement by HPLC-MS/MS or scintillation counting. Sampled receiver volumes are replaced with fresh receiver solution.

SMILES strings stand for the structures.

Consider `COc1ncc(-c2ccc(OCc3c(C)nnn3-c3ccc(C(F)F)cc3)nn2)cn1` [Example 3], for which the efflux ratio came to 0.6 and the Papp A→B came out at 59.7 ×10⁻⁶ cm/s.
The like results for `Cc1ncc(-c2ccc(OCc3c(C)nnn3-c3ccc(C(F)F)cc3)nn2)o1` [Example 6] were, in that order, 0.7 and 67.8 ×10⁻⁶ cm/s.
The like results for `CCn1cc(-c2ccc(OCc3c(C)nnn3-c3ccc(C(F)F)cc3)nn2)cn1` [Example 7] were, in that order, 2.7 and 17.7 ×10⁻⁶ cm/s.
For `Cc1nnn(-c2ccc(C(F)F)cc2)c1COc1ccc(-c2cnn(C3CC3)c2)nn1` [Example 9] the same measures were 0.8 and 42.4 ×10⁻⁶ cm/s.
In the case of `Cc1cc(-c2ccc(OCc3c(C)nnn3-c3ccc(C(F)F)cc3)nn2)cnn1` [Example 11], the efflux ratio was 3.7 and the Papp A→B stood at 18.8 ×10⁻⁶ cm/s.
For `CNC(=O)c1cn(-c2ccc(OCc3c(C)nnn3-c3ccc(C(F)F)cc3)nn2)cn1` [Example 14] the same measures were 3.8 and 14.6 ×10⁻⁶ cm/s.
For `Cc1nnn(-c2ccc(C(F)F)cc2)c1COc1ccc(-n2cnc(C(F)F)c2)nn1` [Example 15] the same measures were 1.1 and 31.8 ×10⁻⁶ cm/s.
In the case of `Cc1nnn(-c2ccc(C(F)F)cc2)c1COc1ccc(-n2cnc(Cl)c2)nn1` [Example 18], the efflux ratio was 1.1 and the Papp A→B came to 28.5 ×10⁻⁶ cm/s.
On to `Cc1nnn(-c2ccc(C(F)F)cc2)c1COc1ccc(-n2ccc(C#N)n2)nn1` [Example 20], for which the efflux ratio was determined as 0.6 and the Papp A→B came to 52 ×10⁻⁶ cm/s.
For `Cc1nnn(-c2ccc(C(F)F)cc2)c1COc1ccc(-n2ccc(C(N)=O)n2)nn1` [Example 21] the same measures were 1.2 and 25 ×10⁻⁶ cm/s.
For `Cc1nnn(-c2ccc(C(F)F)cc2)c1COc1ccc(-c2cncnc2)nn1` [Example 22] the same measures were 1.1 and 49.6 ×10⁻⁶ cm/s.
For `Cc1nnn(-c2ccc(C(F)F)cc2)c1COc1ccc(-n2ccc(C(F)(F)F)n2)nn1` [Example 24] the same measures were 0.4 and 51.3 ×10⁻⁶ cm/s.
Turning to `Cc1nnn(-c2ccc(C(F)F)cc2)c1COc1ccc(-n2cc(C(F)(F)F)cn2)nn1` [Example 25], the efflux ratio is 0.3 and the Papp A→B was 56.1 ×10⁻⁶ cm/s.
The like results for `COC(=O)c1cn(-c2ccc(OCc3c(C)nnn3-c3ccc(C(F)F)cc3)nn2)cn1` [Example 29] were, in that order, 2.8 and 18.8 ×10⁻⁶ cm/s.
The like results for `CC(=O)c1cn(-c2ccc(OCc3c(C)nnn3-c3ccc(C(F)F)cc3)nn2)cn1` [Example 32] were, in that order, 3.4 and 17.6 ×10⁻⁶ cm/s.
The like results for `Cc1ncn(-c2ccc(OCc3c(C)nnn3-c3ccc(C(F)F)cc3)nn2)n1` [Example 33] were, in that order, 0.9 and 52.2 ×10⁻⁶ cm/s.
As for `Cc1nnn(-c2ccc(C(F)F)cc2)c1COc1ccc(-n2cnc(C[N+](C)(C)C)c2)nn1.O=C([O-])C(F)(F)F` [Example 36, ({1-[6-({1-[4-(difluoromethyl)phenyl]-4-methyl-1H-1,2,3-triazol-5-yl}methoxy)pyridazin-3-yl]-1H-imidazol-4-yl}methyl)trimethylazanium trifluoroacetate], the efflux ratio was found to be 0.5 and the Papp A→B stood at 0.6 ×10⁻⁶ cm/s.
The like results for `Cc1nnn(-c2ccc(C(F)F)cc2)c1COc1ccc(-n2cnc(C(=O)O)c2)nn1` [Example 37, 1-[6-({1-[4-(difluoromethyl)phenyl]-4-methyl-1H-1,2,3-triazol-5-yl}methoxy)pyridazin-3-yl]-1H-imidazole-4-carboxylic acid] were, in that order, 0.8 and 0.7 ×10⁻⁶ cm/s.

In general, efflux ratio refers to a quotient of directional permeabilities that is used to spot active efflux. The Papp A→B is how fast a substance crosses the layer from the apical side.
